In patent publication US20120094897A1, “NOVEL INHIBITORS OF HEPATITIS C VIRUS REPLICATION” (InterMune, Inc., priority 2010, published 2012):

Experiments:
[1] = tested on: HCV sub-genomic replicon (I377/NS3-3′) in HuH-7 hepatoma cells (GS4.3); assay: Quantitation by ELISA of NPTII in the HCV sub-genomic replicon, GS4.3; format: cell-based; settings: Hepatitis C virus, GS4.3 replicon cells, 72 h incubation
Description: The HCV sub-genomic replicon (I377/NS3-3′, accession No. AJ242652), stably maintained in HuH-7 hepatoma cells, was created by Lohmann et al. Science 285: 110-113 (1999). The replicon-containing cell culture, designated GS4.3, was obtained from Dr. Christoph Seeger of the Institute for Cancer Research, Fox Chase Cancer Center, Philadelphia, Pa.
GS4.3 cells were maintained at 37° C., 5% CO2, in DMEM (Gibco 11965-092) supplemented with L-glutamine 200 mM (100×) (Gibco25030-081), non-essential amino acids (NEAA)(Biowhittaker 13-114E), heat-inactivated (HI) Fetal Bovine Serum(FBS)(Hyclone SH3007.03) and […] geneticin (G418)(Gibco 10131-035). Cells were sub-divided 1:3 or 4 every 2-3 days.
24 h prior to the assay, GS4.3 cells were collected, counted, and plated in 96-well plates (Costar 3585) at 7500 cells/well in 100 μL standard maintenance medium (above) and incubated in the conditions above. To initiate the assay, culture medium was removed, cells were washed once with PBS (Gibco 10010-023) and 90 μl Assay Medium (DMEM, L-glutamine, NEAA, 10% HI FBS, no G418) was added. Inhibitors were made as a 10× stock in Assay Medium, (3-fold dilutions from 10 μM to […] final concentration, final DMSO concentration 1%), 10 μL were added to duplicate wells, plates were rocked to mix, and incubated as above for 72 h.
An NPTII Elisa kit was obtained from AGDIA, Inc. (Compound direct ELISA test system for Neomycin Phosphotransferase II, PSP 73000/4800). Manufacturer's instructions were followed, with some modifications. 10×PEB-1 lysis buffer was made up to include 500 μM PMSF (Sigma P7626, 50 mM stock in isopropanol). After 72 h incubation, cells were washed once with PBS and 150 μL PEB-1 with PMSF was added per well. Plates were agitated vigorously for 15 minutes, room temperature, and then frozen at −70° C. Plates were thawed, lysates were mixed thoroughly, and 100 μL were applied to an NPTII Elisa plate. A standard curve was made. Lysate from DMSO-treated control cells was pooled, serially diluted with PEB-1 with PMSF, and applied to duplicate wells of the ELISA plate, in a range of initial lysate amount of 150 μL. In addition, 100 μL buffer alone was applied in duplicate as a blank. Plates were sealed and gently agitated at room temperature for 2 h. Following capture incubation, the plates were washed 5×300 μL with PBS-T (0.5% Tween-20, PBS-T was supplied in the ELISA kit). For detection, a 1× dilution of enzyme conjugate diluent MRS-2 (5×) was made in PBS-T, into which 1:100 dilutions of enzyme conjugates A and B were added, as per instructions. Plates were resealed, and incubated with agitation, covered, room temperature, for 2 h. The washing was then repeated and 100 μL of room temperature TMB substrate was added. After approximately 30 minutes incubation (room temperature, agitation, covered), the reaction was stopped with 50 μL 3M sulfuric acid. Plates were read at 450 nm on a Molecular Devices Versamax plate reader.
Inhibitor effect was expressed as a percentage of DMSO-treated control signal, and inhibition curves were calculated using a 4-parameter equation: y=A+4B−A)/(1+((C/x)̂D))), where C is half-maximal activity or EC50.

[2] = target: T1, HCV NS3 protease (full-length NS3/NS4A-2 complex) (Hepatitis C virus genotype 1a, UniProt P27958); assay: NS3 Inhibition Assay (NS3-NS4 protease assay, RETS1 substrate); format: biochemical; settings: NS3/NS4A-2, RETS1 substrate, 10 minutes pre-incubation
T1 construct: Recombinant E. coli or Baculovirus full-length NS3 was diluted to 3.33 μM with assay buffer; host or cells: E. coli or baculovirus (insect cells)
T1 sequence (P27958 1027-1657, one chain of several): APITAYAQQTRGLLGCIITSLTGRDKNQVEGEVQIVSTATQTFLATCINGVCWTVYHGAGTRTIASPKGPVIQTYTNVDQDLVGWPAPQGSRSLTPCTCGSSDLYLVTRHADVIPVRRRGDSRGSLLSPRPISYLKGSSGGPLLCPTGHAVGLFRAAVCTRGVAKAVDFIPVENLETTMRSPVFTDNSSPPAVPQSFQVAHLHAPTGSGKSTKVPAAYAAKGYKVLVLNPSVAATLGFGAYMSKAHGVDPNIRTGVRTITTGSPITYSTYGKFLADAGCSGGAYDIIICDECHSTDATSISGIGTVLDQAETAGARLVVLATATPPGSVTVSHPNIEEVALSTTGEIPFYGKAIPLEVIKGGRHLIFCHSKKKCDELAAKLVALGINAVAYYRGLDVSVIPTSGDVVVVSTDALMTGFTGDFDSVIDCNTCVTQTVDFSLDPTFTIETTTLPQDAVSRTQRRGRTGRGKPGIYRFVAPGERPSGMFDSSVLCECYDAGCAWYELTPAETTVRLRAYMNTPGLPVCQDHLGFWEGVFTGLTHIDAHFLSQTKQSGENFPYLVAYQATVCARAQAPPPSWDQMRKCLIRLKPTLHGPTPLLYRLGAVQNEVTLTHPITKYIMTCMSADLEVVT
Description: NS3 Complex Formation with NS4A-2.
Recombinant E. coli or Baculovirus full-length NS3 was diluted to 3.33 μM with assay buffer and the material was transferred to an eppendorf tube and placed in a water bath in a 4° C. refrigerator. The appropriate amount of NS4A-2 diluted to 8.3 mM in assay buffer was added to an equal the volume of NS3 above (conversion factor—3.8 mg/272 μL assay buffer). The material was transferred to an eppendorf tube and placed in water bath in a 4° C. refrigerator.
After equilibration to 4° C., equal volumes of NS3 and NS4A-2 solutions were combined in an eppendorf tube, mixed gently with a manual pipettor, and incubated for 15 minutes in the 4° C. water bath. Final concentrations in the mixture are 1.67 μM NS3, 4.15 mM NS4A-2 (2485-fold molar excess NS4A-2).
After 15 minutes at 4° C., the NS3/NS4A-2 eppendorf tube was removed and placed in a room temperature water bath for 10 minutes. NS3/NS4A-2 was aliquoted at appropriate volumes and stored at −80° C. (E. coli NS3 run at 2 nM in assay, aliquot at 25 μL. BV NS3 run at 3 nM in assay, aliquot at 30 μL).
Step a. Sample compounds were dissolved to 10 mM in DMSO then diluted to 2.5 mM (1:4) in DMSO. Typically, compounds were added to an assay plate at 2.5 mM concentration, yielding upon dilution a starting concentration of 50 μM in the assay inhibition curve. Compounds were serial diluted in assay buffer to provide test solutions at lower concentrations.
Step 1. The E. coli. NS3/NS4A-2 was diluted to 4 nM NS3 (1:417.5 of 1.67 μM stock−18 μL 1.67 μM stock+7497 μL assay buffer). The BV NS3/NS4A-2 was diluted to 6 nM NS3 (1:278.3 of 1.67 μM stock−24 μL 1.67 μM stock+6655 μL assay buffer).
Step. 2. Using the manual multichannel pipettor, and being careful not to introduce bubbles into the plate, 50 μL assay buffer was added to wells A01-H01 of a black Costar 96-well polypropylene storage plate.
Step 3. Using the manual multichannel pipettor, and being careful not to introduce bubbles into the plate, 50 μL of diluted NS3/NS4A-2 from step 1 was added to wells A02-H12 of the plate in step 2.
Step 4. Using the manual multichannel pipettor, and being careful not to introduce bubbles into the plate, 25 μL of the wells in drug dilution plate in step a was transferred to corresponding wells in assay plate in step 3. The tips on the multichannel pipettor were changed for each row of compounds transferred.
Step 5. Using the manual multichannel pipettor, and being careful not to introduce bubbles into the plate, the contents of the wells from the assay plate in step 4 were mixed by aspirating and dispensing 35 μL of the 75 μL in each well five times. The tips on multichannel pipettor were changed for each row of wells mixed.
Step 6. The plate was covered with a polystyrene plate lid, and the plate from step 5 containing NS3 protease and sample compounds was pre-incubated 10 minutes at room temperature.
While the plate from step 6 is pre-incubating, the RETS1 substrate was diluted in a 15 mL polypropylene centrifuge tube. The RETS1 substrate was diluted to 8 μM (1:80.75 of 646 μM stock−65 μL 646 μM stock+5184 μL assay buffer).
After the plate in step 6 finished pre-incubating, and using the manual multichannel, 25 μL of substrate was added to all wells on the plate. The contents of the wells of the plate were quickly mixed, as in step 5, mixing 65 μL of the 100 μL in the wells.
The plate was read in kinetic mode on the Molecular Devices SpectraMax Gemini XS plate reader. Reader settings: Read time: 30 minutes, Interval: 36 seconds, Reads: 51, Excitation λ: 335 nm, Emission λ: 495 nm, cutoff: 475 nm, Automix: off, Calibrate: once, PMT: high, Reads/well: 6, Vmax pts: 21 or 28/51 depending on length of linearity of reaction
IC50s are determined using a four parameter curve fit equation, and converted to Ki's using the following Km's: • Full-length E. coli NS3-2.03 μM • Full-length BV NS3-1.74 μM • where Ki=IC50/(1+[S]/Km))

Structure (SMILES): CC[C@@H]1C[C@@]12NC(=O)[C@@H]1C[C@H](CN1C(=O)[C@@H](NC(=O)OC(C)(C)C)C(C)(C)C)Oc1nc3c(cccc3n1C(C)C)C(=O)NCC=CCCCC1(CC1)S(=O)(=O)NC2=O [Compound 9]
- EC50 [1]: 10 to 100 nM
- IC50 [2]: ≤ 10 nM

Structure (SMILES): CC[C@@H]1C[C@@]12NC(=O)[C@@H]1C[C@H](CN1C(=O)[C@@H](NC(=O)OC(C)(C)C)C(C)(C)C)Oc1nc3c(cccc3n1C(C)C)C(=O)NCCC=CCCC1(CC1)S(=O)(=O)NC2=O [Compound 10]
- EC50 [1]: ≥ 100 nM
- IC50 [2]: ≤ 10 nM

Structure (SMILES): CC[C@@H]1C[C@@]12NC(=O)[C@@H]1C[C@H](CN1C(=O)[C@@H](NC(=O)OC(C)(C)C)C(C)(C)C)Oc1nc3c(cccc3n1C(C)C)C(=O)NCCCCCCC1(CC1)S(=O)(=O)NC2=O [Compound 11]
- EC50 [1]: ≥ 100 nM
- IC50 [2]: ≤ 10 nM

Structure (SMILES): CC[C@@H]1C[C@@]12NC(=O)[C@@H]1C[C@H](CN1C(=O)[C@@H](NC(=O)OC(C)(C)C)C(C)(C)C)Oc1nc3c(cccc3n1C(C)C)C(=O)NCCC=CCCCC1(CC1)S(=O)(=O)NC2=O [Compound 12]
- EC50 [1]: 10 to 100 nM
- IC50 [2]: ≤ 10 nM

Structure (SMILES): CC[C@@H]1C[C@@]12NC(=O)[C@@H]1C[C@H](CN1C(=O)[C@@H](NC(=O)OC(C)(C)C)C(C)(C)C)Oc1nc3c(cccc3n1C(C)C)C1=NC(C(C)C)=C(CCC=CCCC3(CC3)S(=O)(=O)NC2=O)S1 [Compound 13]
- EC50 [1]: ≥ 100 nM
- IC50 [2]: ≤ 10 nM

Structure (SMILES): CC[C@@H]1C[C@@]12NC(=O)[C@@H]1C[C@H](CN1C(=O)[C@@H](NC(=O)OC(C)(C)C)C(C)(C)C)Oc1nc3c(cccc3n1C(C)C)C(=O)NCCCCCCCC1(CC1)S(=O)(=O)NC2=O [Compound 14]
- EC50 [1]: ≤ 10 nM
- IC50 [2]: ≤ 10 nM

Structure (SMILES): CC[C@@H]1C[C@@]12NC(=O)[C@@H]1C[C@H](CN1C(=O)[C@@H](NC(=O)OC(C)(C)C)C(C)(C)C)Oc1nc3c(cccc3n1C(C)C)C1=NC(C(C)C)=C(CCCCCCC3(CC3)S(=O)(=O)NC2=O)S1 [Compound 15]
- EC50 [1]: ≥ 100 nM
- IC50 [2]: ≤ 10 nM

Structure (SMILES): CC[C@@H]1C[C@@]12NC(=O)[C@@H]1C[C@H](CN1C(=O)[C@@H](NC(=O)OC(C)(C)C)C(C)(C)C)Oc1nc3c(cccc3n1C(C)C)C1=NC(C(C)C)=C(CCC/C=C/CCCC3(CC3)S(=O)(=O)NC2=O)S1 [Compound 101]
- EC50 [1]: ≥ 100 nM
- IC50 [2]: ≤ 10 nM

Structure (SMILES): CC[C@@H]1C[C@@]12NC(=O)[C@@H]1C[C@H](CN1C(=O)[C@@H](NC(=O)OC(C)(C)C)C(C)(C)C)Oc1nc3c(cccc3n1C(C)C)C1=NC(C(C)C)=C(CCCCCCCCC3(CC3)S(=O)(=O)NC2=O)S1 [Compound 102]
- EC50 [1]: ≥ 100 nM
- IC50 [2]: 10 to 100 nM

Structure (SMILES): CC[C@@H]1C[C@@]12NC(=O)[C@@H]1C[C@H](CN1C(=O)[C@@H](N)C(C)(C)C)Oc1nc3c(cccc3n1C(C)C)C1=NC(C(C)C)=C(CCC/C=C/CCCC3(CC3)S(=O)(=O)NC2=O)S1 [Compound 103]
- EC50 [1]: ≥ 100 nM
- IC50 [2]: 10 to 100 nM

Structure (SMILES): CC[C@@H]1C[C@@]12NC(=O)[C@@H]1C[C@H](CN1C(=O)[C@@H](N)C(C)(C)C)Oc1nc3c(cccc3n1C(C)C)C1=NC(C(C)C)=C(CCCCCCCCC3(CC3)S(=O)(=O)NC2=O)S1 [Compound 104]
- EC50 [1]: ≥ 100 nM
- IC50 [2]: 10 to 100 nM

Structure (SMILES): CC[C@@H]1C[C@@]12NC(=O)[C@@H]1C[C@H](CN1C(=O)[C@@H](NC(=O)OC(C)(C)C)C(C)(C)C)Oc1nc3c(cccc3n1C(C)C)C1=NC(C(C)C)=C(CC/C=C/CCCCS(=O)(=O)NC2=O)S1 [Compound 105]
- EC50 [1]: ≥ 100 nM
- IC50 [2]: ≤ 10 nM

Structure (SMILES): CC[C@@H]1C[C@@]12NC(=O)[C@@H]1C[C@H](CN1C(=O)[C@@H](NC(=O)OC(C)(C)C)C(C)(C)C)Oc1nc3c(cccc3n1C(C)C)C1=NC(C(C)C)=C(CC/C=C\CCCCS(=O)(=O)NC2=O)S1 [Compound 106]
- EC50 [1]: ≥ 100 nM
- IC50 [2]: 10 to 100 nM

Structure (SMILES): CC[C@@H]1C[C@@]12NC(=O)[C@@H]1C[C@H](CN1C(=O)[C@@H](NC(=O)OC(C)(C)C)C(C)(C)C)Oc1nc3c(cccc3n1C(C)C)C1=NC(C(C)C)=C(CCCCCCCCS(=O)(=O)NC2=O)S1 [Compound 107]
- EC50 [1]: ≥ 100 nM
- IC50 [2]: 10 to 100 nM

Structure (SMILES): CC[C@@H]1C[C@@]12NC(=O)[C@@H]1C[C@H](CN1C(=O)[C@@H](N)C(C)(C)C)Oc1nc3c(cccc3n1C(C)C)C1=NC(C(C)C)=C(CC/C=C\CCCCS(=O)(=O)NC2=O)S1 [Compound 108]
- EC50 [1]: ≥ 100 nM
- IC50 [2]: ≥ 100 nM

Structure (SMILES): CC[C@@H]1C[C@@]12NC(=O)[C@@H]1C[C@H](CN1C(=O)[C@@H](N)C(C)(C)C)Oc1nc3c(cccc3n1C(C)C)C1=NC(C(C)C)=C(CC/C=C/CCCCS(=O)(=O)NC2=O)S1 [Compound 109]
- EC50 [1]: ≥ 100 nM
- IC50 [2]: ≥ 100 nM

Structure (SMILES): CC[C@@H]1C[C@@]12NC(=O)[C@@H]1C[C@H](CN1C(=O)[C@@H](N)C(C)(C)C)Oc1nc3c(cccc3n1C(C)C)C1=NC(C(C)C)=C(CCCCCCCCS(=O)(=O)NC2=O)S1 [Compound 110]
- EC50 [1]: ≥ 100 nM
- IC50 [2]: ≥ 100 nM
